# Laboratory results reported in patent US10131679B2, “Substituted dihydropyrrolopyrazole compound” (UBE INDUSTRIES, LTD., priority 2014, dated 2018).
# pIC50, pKi: −log10 of the molar value.
# What was measured:
# [1] = test system: human large intestine cancer cell line (HCT-116); experiment: Human large intestine cancer (HCT-116) cell growth inhibition test; type: cell-based; conditions: 72 h, HCT-116, culture for 3 days, sulforhodamine B absorbance
# In short: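 HCT-116 cells seeded at 1.0×10^3 cells/well in McCoy's 5a with 10% FBS, then exposed to compound (0.1% DMSO final) for 3 days. Growth measured by sulforhodamine B absorbance; IC50 derived from concentration-inhibition data.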
# CDK7 = target: T1, CDK7 (Homo sapiens, UniProt P50613); experiment: CDK7 enzyme inhibition test; type: biochemical; conditions: Ki=IC50/(1+S/Km); 33P bound to MBP, [γ-33P]ATP, 30° C. for 20 minutes; read-out: Ki value of CDK7 inhibitory activity
# T1 construct: purchased Carna Biosciences, Inc. 04-108
# In short: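 Recombinant CDK7 with MBP substrate and [γ-33P]ATP (500 μM solution, diluted into the mix) in HEPES pH 7.4/DTT/Triton X-100/MgCl2, 20 min at 30 °C. TCA-precipitated 33P-MBP counted by scintillation; IC50 from inhibition, Ki = IC50/(1+S/Km).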
# [2] = test system: Human keratinocytes (NHEK-Neo Pooled); experiment: Human keratinocyte growth inhibition assay; type: cell-based; conditions: 48 h, culture for 2 days, Cell Counting Kit-8
# Description: Human Keratinocyte Growth Inhibition Assay
# The measurement of a human keratinocyte growth inhibitory effect was carried out by modifying the method of Schafer et al. (British Journal of Pharmacology, 159, 842 (2011)).
# Human keratinocytes (NHEK-Neo Pooled, manufactured by Lonza Group AG, Cat. No. 00192906) were cultured in KGM-Gold Bullet Kit (manufactured by Lonza Group AG, Cat. No. 00192060) and inoculated at 2.0×10^3 cells/well to a 96-well plate. After overnight culture in a carbon dioxide incubator, a test compound dissolved in DMSO (final DMSO concentration: 0.1%) was added and left standing in a carbon dioxide incubator. After culture for 2 days, the absorbance thereof was measured by using Cell Counting Kit-8 (343-07623 manufactured by Dojindo Laboratories)).
# The rate of inhibition of cell growth at each concentration was calculated from the test compound concentration and the absorbance of Cell Counting Kit-8, and the concentration of the test compound necessary for inhibiting 50% of cell growth (IC50 value) was calculated by using EXSUS (version 8.0.0 or version 8.0.1, manufactured by CAC Exicare Corp.).
# [3] = test system: IL-2 production in human peripheral blood mononuclear cell (PBMC); experiment: Human PBMC CD3/CD28-induced IL-2 production inhibition test; type: cell-based; conditions: 48 h, CD3/CD28 stimulation, incubation for 2 days, ELISA
# Description: Human Peripheral Blood Mononuclear Cell (PBMC) CD3/CD28-Induced IL-2 Production Inhibition Test
# PBMC was separated and collected by using Ficoll-Paque (17-1440-02 manufactured by GE Healthcare Japan Corp.) from blood collected from healthy human adult in the presence of heparin. RPMI1640 medium (manufactured by GIBCO/Thermo Fisher Scientific, Inc., REF. 11875) containing 10% FBS (manufactured by GIBCO/Thermo Fisher Scientific, Inc. REF. 10082) and containing a test compound dissolved in DMSO and 2 μg/mL anti-hCD28 (manufactured by R&D Systems, Inc., Cat. No. MAB342) was added at 100 μL/well to T cell Activation Plate Anti-Human CD3 96-well plate (manufactured by Corning Inc., REF. 354725), and subsequently, a PBMC suspension adjusted such that the number of cells was 2×10^6 cells/mL was added at 100 μL/well (final DMSO concentration: 0.1%). A RPMI1640 medium containing 10% FBS and containing 0.1% DMSO and 2 μg/mL anti-hCD28 was similarly added to wells not supplemented with the test compound. After incubation for 2 days in a carbon dioxide incubator, the culture supernatant was collected. The collected culture supernatant was stored at −20° C. until IL-2 content measurement.
# In the measurement of IL-2 content in the culture supernatant, a sandwich ELISA kit Quantikine Human IL-2 (manufactured by R&D Systems, Inc., Cat. No. S2050) was used. The IL-2 content of each sample was calculated from the calibration curve of Standard IL-2 included in the kit. When the amount of IL-2 produced by CD3/CD28 stimulation in the case of the addition of only DMSO was defined as 100%, the rate of inhibition of IL-2 production at each concentration of the test compound was calculated. A test compound concentration inhibiting 50% of IL-2 production was calculated as an IC50 value (nM) from the concentration of the added test compound and the rate of inhibition of IL-2 production by the test compound by using EXSUS (version 8.0.0 or version 8.0.1, manufactured by CAC Exicare Corp.).
# [4] = test system: mouse imiquimod-induced psoriasis model; experiment: Ear thickening suppression test using mouse imiquimod-induced psoriasis model; type: in vivo; conditions: topical, 120 h, application of a 0.01% methanol solution for 4 days, thickness measured on day 5, BALB/c mice, read-out: rate of inhibition of increase in right auricle thickness
# Description: Ear Thickening Suppression Test Using Mouse Imiquimod-Induced Psoriasis Model
# An imiquimod-induced psoriasis model test was carried out by modifying the method of Leslie van der Fits et al. (J. Immunol. 182, 5836 (2009)). BALB/c mice were used (female, supplied by Charles River Laboratories Japan, Inc.) as laboratory animals. On the start day of the test, the thicknesses of the right auricles of the mice were measured with a thickness gauge (model SMD-565J manufactured by TECLOCK Corp.). A test compound solution or only a solvent was applied or orally administered, and after 60 minutes, 5 mg of imiquimod (Beselna Cream 5% manufactured by Mochida Pharmaceutical Co., Ltd.) was applied to the insides of the right auricles. The test compound solution or solvent administration and the imiquimod application were carried out for 4 days, and the thicknesses of the right auricles were measured again on day 5. When increase in the thicknesses of the right auricles of the solvent-administered group on day 5 was defined as 100%, the rate of inhibition of increase (%) at each dose of the test compound was calculated.
# [5] = test system: IL-6 production in rat adjuvant arthritis model; experiment: IL-6 production inhibition test in rat adjuvant arthritis model; type: in vivo, LEW rats; conditions: single dose, administration of 10 mg/kg, left ankle, read-out: rate of inhibition of IL-6 production
# Description: IL-6 Production Inhibition Test in Rat Adjuvant Arthritis Model
# A single-dose drug efficacy test using rat adjuvant arthritis models was carried out by modifying the method of Magari. K et al. (J. Rheumatol. 30 (10), 2193 (2003)).
# LEW rats (female, supplied by Charles River Laboratories Japan, Inc.) were used as laboratory animals. An adjuvant prepared from heat-killed bacteria of Mycobacterium butyricum (264010 manufactured by Difco Laboratories Ltd.) and liquid paraffin (manufactured by Wako Pure Chemical Industries, Ltd., Code No. 128-04375) was subcutaneously administered as a phlogogenic material to the right hind leg footpads of the rats under inhalation anesthesia with isoflurane (manufactured by Wako Pure Chemical Industries, Ltd., Code No. 099-06571) to prepare arthritis models. Approximately 2 weeks later, left paw edema was measured with a paw volume meter (model TK-101CMP manufactured by Unicorn Co., Ltd.), and grouping was performed such that the average volume of left paw edema was equal among groups. A test compound or only a solvent was administered, after a certain time, they were sacrificed by exsanguination from the abdomens under isoflurane anesthesia, and the left ankles were collected, chopped, and frozen by using liquid nitrogen. The collected left ankle portions were disrupted in CRYOPress (model CP-100WP manufactured by Microtec Co., Ltd.), then supplemented with a buffer solution, shaken overnight at 4° C., and then centrifuged to collected a supernatant. The preparation of the buffer solution was performed by mixing a Tris buffer solution (pH 7.4), sodium chloride (NaCl), phenyl methyl sulfonyl fluoride (PMSF), Triton X-100, EDTA-free complete tablets (manufactured by F. Hoffmann-La Roche, Ltd., REF. 11 873 580 001), and Otsuka distilled water (manufactured by Otsuka Pharmaceutical Co., Ltd., product No. 1323). IL-6 in the collected supernatant was measured by using a sandwich ELISA kit (manufactured by R&D Systems, Inc., Catalog No. S6050).
# The IL-6 content of each sample was calculated from the calibration curve of Standard IL-6 included in the kit. When the amount of IL-6 produced in the solvent administration control group was defined as 100%, the rate of inhibition of IL-6 production (%) at each dose of the test compound was calculated.
# T1 sequence (P50613 whole entry): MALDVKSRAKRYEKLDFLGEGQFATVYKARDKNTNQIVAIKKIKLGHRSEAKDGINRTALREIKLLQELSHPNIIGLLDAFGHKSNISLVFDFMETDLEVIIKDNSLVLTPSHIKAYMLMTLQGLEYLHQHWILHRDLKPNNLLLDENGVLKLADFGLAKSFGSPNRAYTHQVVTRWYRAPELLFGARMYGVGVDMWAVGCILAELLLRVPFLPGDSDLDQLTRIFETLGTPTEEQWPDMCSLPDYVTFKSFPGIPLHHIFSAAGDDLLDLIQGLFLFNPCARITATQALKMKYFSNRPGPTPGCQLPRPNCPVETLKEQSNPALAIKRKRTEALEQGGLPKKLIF
# T1 sequence (P51946 whole entry partner): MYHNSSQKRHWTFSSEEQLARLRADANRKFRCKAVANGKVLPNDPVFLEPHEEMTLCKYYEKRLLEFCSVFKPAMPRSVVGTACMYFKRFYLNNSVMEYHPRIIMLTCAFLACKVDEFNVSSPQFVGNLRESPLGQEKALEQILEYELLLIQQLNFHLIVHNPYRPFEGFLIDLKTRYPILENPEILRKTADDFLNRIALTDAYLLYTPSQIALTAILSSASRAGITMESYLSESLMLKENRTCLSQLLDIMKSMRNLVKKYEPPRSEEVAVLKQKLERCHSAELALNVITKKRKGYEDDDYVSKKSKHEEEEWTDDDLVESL
# T1 sequence (P51948 whole entry partner): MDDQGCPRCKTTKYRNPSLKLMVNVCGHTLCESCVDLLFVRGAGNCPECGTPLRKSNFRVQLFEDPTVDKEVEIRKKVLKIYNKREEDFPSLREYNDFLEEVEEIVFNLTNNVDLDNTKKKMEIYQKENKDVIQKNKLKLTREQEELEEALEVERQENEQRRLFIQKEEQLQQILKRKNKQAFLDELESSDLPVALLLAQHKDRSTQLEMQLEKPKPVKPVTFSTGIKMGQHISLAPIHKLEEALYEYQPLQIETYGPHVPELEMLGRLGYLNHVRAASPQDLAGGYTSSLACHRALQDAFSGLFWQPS
smiles,measurement,setting,value
"CC1(C)c2[nH]nc(NC(=O)C3([Si](C)(C)C)CCC3)c2CN1C(=O)NC(C#CCO)c1ccccc1 (racemic) [IV-378, N-(4-Hydroxy-1-phenyl-2-butyn-1-yl)-6,6-dimethyl-3-[1-(trimethylsilyl)cyclobutanecarboxamido]-4,6-dihydropyrrolo[3,4-c]pyrazole-5(1H)-carboxamide]",pIC50,[1],≥ 6.30
same,pKi,CDK7,≥ 7.30
same,pIC50,[2],≥ 6.30
"CC(C)(O)[C@@H](NC(=O)N1Cc2c(NC(=O)C3([Si](C)(C)C)CC3)n[nH]c2C1(C)C)c1ccccc1 [III-170, (S)—N-(2-Hydroxy-2-methyl-1-phenylpropyl)-6,6-dimethyl-3-[1-(trimethylsilyl)cyclopropanecarboxamido]-4,6-dihydropyrrolo[3,4-c]pyrazole-5(1H)-carboxamide]",pIC50,[1],≥ 6.30
same,pIC50,[3],≥ 7.30
same,pKi,CDK7,≥ 7.30
same,pIC50,[2],≥ 6.30
"CC1(C)c2[nH]nc(NC(=O)C3([Si](C)(C)C)CC3)c2CN1C(=O)N[C@H](CCO)c1ccccc1 [III-226, (R)—N-(3-Hydroxy-1-phenylpropyl)-6,6-dimethyl-3-[1-(trimethylsilyl)cyclopropanecarboxamido]-4,6-dihydropyrrolo[3,4-c]pyrazole-5(1H)-carboxamide]",pIC50,[1],≥ 6.30
same,pIC50,[3],≥ 7.30
same,pKi,CDK7,≥ 7.30
same,pIC50,[2],≥ 6.30
"CO[C@@H](C(=O)N1Cc2c(NC(=O)C3([Si](C)(C)C)CC3)n[nH]c2C1(C)C)c1ccccc1 [III-1059, (R)—N-[5-(2-Methoxy-2-phenylacetyl)-6,6-dimethyl-1,4,5,6-tetrahydropyrrolo[3,4-c]pyrazol-3-yl]-1-(trimethylsilyl)cyclopropanecarboxamide]",pIC50,[1],≥ 6.30
same,pKi,CDK7,≥ 7.30
same,inhibition in vivo at 0.01 %,[4],≥ 50%
same,pIC50,[2],≥ 6.30
"CC1(C)c2[nH]nc(NC(=O)C3([Si](C)(C)C)CCC3)c2CN1C(=O)N[C@H](COC(F)F)c1ccccc1 [IV-131, (S)—N-[2-(Difluoromethoxy)-1-phenylethyl]-6,6-dimethyl-3-[1-(trimethylsilyl)cyclobutanecarboxamido]-4,6-dihydropyrrolo[3,4-c]pyrazole-5(1H)-carboxamide]",pIC50,[1],≥ 6.30
same,pIC50,[2],≥ 6.30
"COCC[C@@H](NC(=O)N1Cc2c(NC(=O)C3([Si](C)(C)C)CCC3)n[nH]c2C1(C)C)c1ccccc1 [IV-235, (R)—N-(3-Methoxy-1-phenylpropyl)-6,6-dimethyl-3-[1-(trimethylsilyl)cyclobutanecarboxamido]-4,6-dihydropyrrolo[3,4-c]pyrazole-5(1H)-carboxamide]",pIC50,[1],≥ 6.30
same,pIC50,[3],≥ 7.30
same,pIC50,[2],≥ 6.30
same,inhibition in vivo at 10 mg/kg,[5],≥ 50%
"CC1(C)c2[nH]nc(NC(=O)C3([Si](C)(C)C)CCC3)c2CN1C(=O)NC(CO)c1ccccc1F (centres unmarked) [IV-510, N-[1-(2-Fluorophenyl)-2-hydroxyethyl]-6,6-dimethyl-3-[1-(trimethylsilyl)cyclobutanecarboxamido]-4,6-dihydropyrrolo[3,4-c]pyrazole-5(1H)-carboxamide]",pIC50,[1],≥ 6.30
same,pIC50,[3],≥ 7.30
same,pKi,CDK7,≥ 7.30
"CC1(C)c2[nH]nc(NC(=O)C3([Si](C)(C)C)CCC3)c2CN1C(=O)N[C@H](CO)c1cccc(F)c1 [IV-519, (S)—N-[1-(3-Fluorophenyl)-2-hydroxyethyl]-6,6-dimethyl-3-[1-(trimethylsilyl)cyclobutanecarboxamido]-4,6-dihydropyrrolo[3,4-c]pyrazole-5(1H)-carboxamide]",pIC50,[1],≥ 6.30
same,pIC50,[3],≥ 7.30
same,pKi,CDK7,≥ 7.30
same,pIC50,[2],≥ 6.30
"CC1(C)c2[nH]nc(NC(=O)C3([Si](C)(C)C)CCC3)c2CN1C(=O)N[C@H](CO)c1ccc(F)cc1 [IV-527, (S)—N-[1-(4-Fluorophenyl)-2-hydroxyethyl]-6,6-dimethyl-3-[1-(trimethylsilyl)cyclobutanecarboxamido]-4,6-dihydropyrrolo[3,4-c]pyrazole-5(1H)-carboxamide]",pIC50,[1],≥ 6.30
same,pIC50,[3],≥ 7.30
same,pKi,CDK7,≥ 7.30
same,pIC50,[2],≥ 6.30
"CC(OC1CCCCC1)C(=O)N1Cc2c(NC(=O)C3([Si](C)(C)C)CCC3)n[nH]c2C1(C)C (centres unmarked) [IV-1255, N-{5-[2-(Cyclohexyloxy)propanoyl]-6,6-dimethyl-1,4,5,6-tetrahydropyrrolo[3,4-c]pyrazol-3-yl}-1-(trimethylsilyl)cyclobutanecarboxamide]",pIC50,[1],≥ 6.30
same,pIC50,[3],≥ 7.30
same,pKi,CDK7,≥ 7.30
